Experimental data taken from ChEMBL document CHEMBL6078663, “Cyclopeptide Avellanins D-O with Antimalarial Activity from the Mariana Trench Anemone-Derived Hamigera ingelheimensis MSC5” (J Nat Prod, 2024).

These compounds were tested on Plasmodium falciparum (assay: Antimalarial activity against synchronous ring-stage Plasmodium falciparum 3D7 infected in erythrocytes incubated for 48 hrs by fluorescence based method). Conditions: 3D7, Erythrocyte.
Type: functional, organism-based

Point of comparison: `C[C@H]1NC(=O)[C@@H](Cc2ccccc2)N(C)C(=O)[C@@H]2CCCN2C(=O)c2ccccc2NC(=O)[C@H](Cc2ccc(O)cc2)NC1=O`, IC50 10 µM. Against it:
- C[C@H]1NC(=O)[C@@H](Cc2ccccc2)N(C)C(=O)[C@@H]2CCCN2C(=O)c2ccccc2NC(=O)[C@H](Cc2ccccc2)NC1=O — within 1.5-fold, 9.4 µM
- CN1C(=O)[C@@H]2CCCN2C(=O)c2ccccc2NC(=O)[C@H](Cc2ccccc2)NC(=O)[C@@H](CO)NC(=O)[C@H]1Cc1ccccc1 — 1.6-fold higher, 16 µM
- C[C@H]1NC(=O)[C@@H](Cc2ccccc2)N(C)C(=O)[C@@H]2CCCN2C(=O)c2ccccc2NC(=O)[C@H](CCO)NC1=O — higher, > 50 µM
- C[C@H]1NC(=O)[C@@H](Cc2ccccc2)N(C)C(=O)[C@@H]2CCCN2C(=O)c2ccccc2NC(=O)[C@H](Cc2ccc(O)c(Cl)c2)NC1=O — 53-fold lower, 0.19 µM
- CN1C(=O)[C@@H]2CCCN2C(=O)c2ccccc2NC(=O)[C@H](Cc2ccccc2)NC(=O)CNC(=O)[C@H]1Cc1ccccc1 — 3.3-fold lower, 3 µM
